Activity calls are given as the source filed them.
Columns and labels:
[1] = target: T1, Sentrin-specific protease 6 (Homo sapiens, UniProt Q9GZR1); test: SAR Analysis of small molecule inhibitors of Sentrin-specific protease 6 (SENP6) using a Luminescent assay. [Related pubchem assays (depositor defined):AID2582, AID2599]; assay type: functional
T1 sequence (Q9GZR1 whole entry): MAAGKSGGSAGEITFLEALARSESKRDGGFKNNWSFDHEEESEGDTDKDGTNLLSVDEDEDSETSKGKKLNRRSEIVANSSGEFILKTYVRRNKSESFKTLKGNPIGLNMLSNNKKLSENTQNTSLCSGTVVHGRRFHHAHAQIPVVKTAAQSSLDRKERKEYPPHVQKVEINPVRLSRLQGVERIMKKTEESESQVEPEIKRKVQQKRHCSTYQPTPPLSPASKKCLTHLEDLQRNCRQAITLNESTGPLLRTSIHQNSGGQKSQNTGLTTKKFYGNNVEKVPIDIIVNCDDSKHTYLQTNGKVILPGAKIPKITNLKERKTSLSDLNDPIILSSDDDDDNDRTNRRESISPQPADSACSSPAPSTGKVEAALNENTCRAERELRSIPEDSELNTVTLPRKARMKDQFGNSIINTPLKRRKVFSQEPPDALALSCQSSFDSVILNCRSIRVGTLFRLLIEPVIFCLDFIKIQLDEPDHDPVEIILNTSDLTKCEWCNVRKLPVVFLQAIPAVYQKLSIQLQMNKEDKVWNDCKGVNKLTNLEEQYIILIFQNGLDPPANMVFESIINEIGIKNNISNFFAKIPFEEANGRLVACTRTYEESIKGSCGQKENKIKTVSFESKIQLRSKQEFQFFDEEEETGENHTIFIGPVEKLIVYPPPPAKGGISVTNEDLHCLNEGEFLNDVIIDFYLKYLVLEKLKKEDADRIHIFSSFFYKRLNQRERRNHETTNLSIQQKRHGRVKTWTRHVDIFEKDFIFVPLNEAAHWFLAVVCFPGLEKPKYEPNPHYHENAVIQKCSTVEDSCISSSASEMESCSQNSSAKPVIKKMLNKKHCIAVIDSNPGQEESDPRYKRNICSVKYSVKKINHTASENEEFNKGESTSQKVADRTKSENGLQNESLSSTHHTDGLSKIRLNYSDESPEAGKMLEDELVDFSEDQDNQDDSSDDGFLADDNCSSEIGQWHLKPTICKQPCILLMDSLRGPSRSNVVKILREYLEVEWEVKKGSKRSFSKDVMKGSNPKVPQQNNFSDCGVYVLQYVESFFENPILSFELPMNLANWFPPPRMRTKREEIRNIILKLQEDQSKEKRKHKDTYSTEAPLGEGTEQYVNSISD

Caspase-3 = target: T2, Caspase-3 (Homo sapiens, UniProt P42574); test: SAR Analysis of small molecule inhibitors of Sentrin-specific proteases (SENPs) using a Caspase-3 Selectivity assay. [Related pubchem assays (depositor defined):AID2540, AID2599, AID434973, AID489001]; assay type: functional
T2 sequence (P42574 whole entry): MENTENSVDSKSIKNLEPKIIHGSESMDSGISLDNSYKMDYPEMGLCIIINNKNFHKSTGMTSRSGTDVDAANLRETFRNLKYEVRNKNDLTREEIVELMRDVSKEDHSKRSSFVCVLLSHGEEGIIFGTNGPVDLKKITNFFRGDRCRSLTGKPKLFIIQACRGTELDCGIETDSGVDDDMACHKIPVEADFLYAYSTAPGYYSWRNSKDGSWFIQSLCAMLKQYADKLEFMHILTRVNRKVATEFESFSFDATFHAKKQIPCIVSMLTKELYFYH

[2] = target: Receptor-type tyrosine-protein kinase FLT3 (Homo sapiens, UniProt P36888); assay type: functional;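 also: FLT3 was tested as one member of a kinome-wide kinase panel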
[3] = target: Platelet-derived growth factor receptor alpha (Homo sapiens, UniProt P16234); test: Navigating the Kinome. Panel member name: PDGFRA; assay type: functional
[4] = target: Dual specificity tyrosine-phosphorylation-regulated kinase 1A (Homo sapiens, UniProt Q13627); assay type: functional;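 also: measured against DYRK1A as one member of a broad kinome profiling panel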
[5] = target: Tyrosine-protein kinase ABL1 (Homo sapiens, UniProt P00519); assay type: functional
[6] = target: Casein kinase I isoform alpha (Homo sapiens, UniProt P48729); assay type: functional
[7] = target: G protein-coupled receptor kinase 5 (Homo sapiens, UniProt P34947); test: Navigating the Kinome. Panel member name: GPRK5; assay type: functional
[8] = target: 5'-AMP-activated protein kinase catalytic subunit alpha-1 (Homo sapiens, UniProt Q13131); assay type: functional
[9] = target: ALK tyrosine kinase receptor (Homo sapiens, UniProt Q9UM73); assay type: functional;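 also: ALK tested as one member of a kinase panel screen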
[10] = target: Fibroblast growth factor receptor 1 (Homo sapiens, UniProt P11362); assay type: functional
[11] = target: Mitogen-activated protein kinase 14 (Homo sapiens, UniProt Q16539); assay type: functional;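 also: part of a kinome-wide panel, MAPK14 entry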
[12] = target: cAMP-dependent protein kinase catalytic subunit PRKX (Homo sapiens, UniProt P51817); assay type: functional
[13] = target: Leukocyte tyrosine kinase receptor (Homo sapiens, UniProt P29376); test: Navigating the Kinome. Panel member name: LTK; assay type: functional
[14] = target: Serine/threonine-protein kinase PAK 4 (Homo sapiens, UniProt O96013); assay type: functional;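 also: value obtained within a kinome profiling panel in which PAK4 was one of the panel members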
[15] = target: cAMP-dependent protein kinase catalytic subunit alpha (Homo sapiens, UniProt P17612); assay type: functional
[16] = target: Ribosomal protein S6 kinase alpha-3 (Homo sapiens, UniProt P51812); assay type: functional;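 also: measured within a kinome-wide profiling panel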
[17] = target: Cyclin-dependent kinase 9 (Homo sapiens, UniProt P50750); assay type: functional;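 also: value from the CDK9 entry of a kinome-spanning kinase panel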
[18] = system: Streptococcus sp. 'group A'; test: growth inhibition of control SK(-) GAS strain, dose response, counter-screen for streptokinase expression inhibitor project, luminescence, kanamycin, BacTiterGlo, confirmation (AID 1900); assay type: functional, organism-based
[19] = target: C-C chemokine receptor type 6 (Homo sapiens, UniProt P51684); test: CCR6 receptor antagonists, dose response, cell-based, luminescent beta-arrestin readout (AID 504728); assay type: functional
[20] = nonselective inhibitors of cellular cAMP signaling, dose response, counter-screen for MC4R biased antagonist project, cell-based, TR-FRET cAMP detection (AID 602305); assay type: functional;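 also: U2OS cells stimulated with forskolin near its EC80 as the cAMP inducer; potency is for inhibition of forskolin-stimulated cAMP signaling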
Melanocortin receptor 4 = Melanocortin receptor 4 (Homo sapiens, UniProt P32245); test: MC4R antagonist potency on cAMP, dose response, cell-based, TR-FRET, biased antagonists (AID 602298); assay type: functional;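 also: antagonist potency against agonist-stimulated cAMP production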
[21] = Luminescence Cell-Based Dose Response HTS to Identify Inhibitors of 5'UTR Stem-Loop Driven Prion Protein mRNA Translation in H4 Neuroglioblastoma Cells. [Related pubchem assays: 1827 (Project Summary), 1813 (Primary HTS)]; assay type: functional

Sequence of 5'-AMP-activated protein kinase catalytic subunit alpha-1 (Q13131 whole entry): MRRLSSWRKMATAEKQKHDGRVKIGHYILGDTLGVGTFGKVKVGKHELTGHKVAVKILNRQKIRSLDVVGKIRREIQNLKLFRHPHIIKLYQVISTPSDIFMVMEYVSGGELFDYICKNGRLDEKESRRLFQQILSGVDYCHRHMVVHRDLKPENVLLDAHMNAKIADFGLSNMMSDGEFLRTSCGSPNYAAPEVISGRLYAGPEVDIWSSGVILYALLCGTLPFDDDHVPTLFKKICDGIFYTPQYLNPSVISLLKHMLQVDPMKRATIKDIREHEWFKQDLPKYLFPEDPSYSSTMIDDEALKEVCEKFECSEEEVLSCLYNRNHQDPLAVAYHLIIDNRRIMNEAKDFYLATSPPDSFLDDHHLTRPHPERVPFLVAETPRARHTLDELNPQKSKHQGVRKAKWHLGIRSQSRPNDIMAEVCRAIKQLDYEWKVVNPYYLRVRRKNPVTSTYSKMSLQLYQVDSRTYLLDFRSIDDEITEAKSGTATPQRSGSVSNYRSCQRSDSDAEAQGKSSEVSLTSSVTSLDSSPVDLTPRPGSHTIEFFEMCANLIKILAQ
Sequence of Leukocyte tyrosine kinase receptor (P29376 whole entry): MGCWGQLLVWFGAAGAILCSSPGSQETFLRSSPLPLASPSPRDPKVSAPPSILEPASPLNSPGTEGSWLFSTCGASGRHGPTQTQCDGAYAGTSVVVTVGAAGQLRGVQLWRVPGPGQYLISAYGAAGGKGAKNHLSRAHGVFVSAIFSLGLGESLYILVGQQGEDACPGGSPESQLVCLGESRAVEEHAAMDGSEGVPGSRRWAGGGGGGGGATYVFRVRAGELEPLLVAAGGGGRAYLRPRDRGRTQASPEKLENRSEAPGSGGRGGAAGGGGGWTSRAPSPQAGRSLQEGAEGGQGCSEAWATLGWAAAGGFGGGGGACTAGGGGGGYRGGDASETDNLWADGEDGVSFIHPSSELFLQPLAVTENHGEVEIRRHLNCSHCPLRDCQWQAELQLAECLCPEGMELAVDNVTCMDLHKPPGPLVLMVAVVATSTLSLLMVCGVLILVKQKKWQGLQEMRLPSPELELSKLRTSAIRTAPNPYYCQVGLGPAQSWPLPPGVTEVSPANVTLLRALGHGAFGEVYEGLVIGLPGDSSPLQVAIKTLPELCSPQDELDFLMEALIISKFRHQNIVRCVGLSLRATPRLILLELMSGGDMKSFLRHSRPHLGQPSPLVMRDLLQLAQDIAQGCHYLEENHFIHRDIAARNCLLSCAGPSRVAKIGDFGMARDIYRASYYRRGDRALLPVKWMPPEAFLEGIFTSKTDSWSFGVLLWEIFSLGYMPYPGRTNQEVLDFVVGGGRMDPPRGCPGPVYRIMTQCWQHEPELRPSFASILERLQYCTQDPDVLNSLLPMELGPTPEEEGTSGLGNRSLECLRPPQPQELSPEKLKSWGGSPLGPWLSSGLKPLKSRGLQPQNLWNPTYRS
Sequence of Tyrosine-protein kinase ABL1 (P00519 whole entry, canonical isoform): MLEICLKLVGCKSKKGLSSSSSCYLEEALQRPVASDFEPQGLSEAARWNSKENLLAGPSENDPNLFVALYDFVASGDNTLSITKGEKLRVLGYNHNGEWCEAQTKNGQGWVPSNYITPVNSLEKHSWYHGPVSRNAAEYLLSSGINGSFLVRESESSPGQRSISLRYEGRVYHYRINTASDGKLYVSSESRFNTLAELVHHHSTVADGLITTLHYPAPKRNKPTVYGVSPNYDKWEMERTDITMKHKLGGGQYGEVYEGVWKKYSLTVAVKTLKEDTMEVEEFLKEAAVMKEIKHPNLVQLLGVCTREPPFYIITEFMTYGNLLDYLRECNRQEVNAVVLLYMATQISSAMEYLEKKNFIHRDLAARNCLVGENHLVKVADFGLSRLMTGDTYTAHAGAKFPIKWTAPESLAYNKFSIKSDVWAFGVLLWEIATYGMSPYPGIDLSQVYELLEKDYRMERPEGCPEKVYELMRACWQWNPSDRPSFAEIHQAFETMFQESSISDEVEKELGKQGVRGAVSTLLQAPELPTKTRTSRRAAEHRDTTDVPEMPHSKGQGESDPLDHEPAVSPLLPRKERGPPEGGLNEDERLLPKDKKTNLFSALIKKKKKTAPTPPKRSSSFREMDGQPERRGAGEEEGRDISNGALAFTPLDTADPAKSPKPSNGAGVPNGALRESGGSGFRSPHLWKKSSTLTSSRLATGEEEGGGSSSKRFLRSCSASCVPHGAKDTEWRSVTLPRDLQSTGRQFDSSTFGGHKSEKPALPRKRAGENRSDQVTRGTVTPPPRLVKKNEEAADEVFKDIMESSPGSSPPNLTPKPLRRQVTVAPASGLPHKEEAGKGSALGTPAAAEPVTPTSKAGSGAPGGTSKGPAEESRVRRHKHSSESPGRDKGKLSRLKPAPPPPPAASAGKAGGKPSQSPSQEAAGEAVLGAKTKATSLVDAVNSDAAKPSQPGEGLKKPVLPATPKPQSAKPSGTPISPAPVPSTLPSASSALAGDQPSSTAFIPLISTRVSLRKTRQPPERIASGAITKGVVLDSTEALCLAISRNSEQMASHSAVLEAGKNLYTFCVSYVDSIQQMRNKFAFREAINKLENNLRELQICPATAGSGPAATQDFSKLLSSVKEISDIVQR
Sequence of G protein-coupled receptor kinase 5 (P34947 whole entry): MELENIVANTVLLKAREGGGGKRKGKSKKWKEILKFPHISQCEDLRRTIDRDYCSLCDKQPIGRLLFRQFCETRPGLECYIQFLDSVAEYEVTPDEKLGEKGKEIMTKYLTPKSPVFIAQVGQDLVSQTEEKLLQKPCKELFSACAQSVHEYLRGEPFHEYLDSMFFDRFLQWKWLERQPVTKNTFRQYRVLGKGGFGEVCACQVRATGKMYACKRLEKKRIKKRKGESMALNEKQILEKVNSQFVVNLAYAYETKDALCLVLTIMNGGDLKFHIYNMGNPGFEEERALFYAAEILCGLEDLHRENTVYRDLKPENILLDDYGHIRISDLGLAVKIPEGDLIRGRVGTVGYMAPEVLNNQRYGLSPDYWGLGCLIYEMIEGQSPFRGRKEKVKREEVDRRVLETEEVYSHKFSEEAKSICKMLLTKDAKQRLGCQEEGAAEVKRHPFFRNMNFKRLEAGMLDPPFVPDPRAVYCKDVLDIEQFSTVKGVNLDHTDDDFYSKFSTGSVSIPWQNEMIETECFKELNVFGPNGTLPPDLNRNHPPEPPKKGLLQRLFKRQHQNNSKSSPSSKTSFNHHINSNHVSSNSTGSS
Sequence of Receptor-type tyrosine-protein kinase FLT3 (P36888 whole entry): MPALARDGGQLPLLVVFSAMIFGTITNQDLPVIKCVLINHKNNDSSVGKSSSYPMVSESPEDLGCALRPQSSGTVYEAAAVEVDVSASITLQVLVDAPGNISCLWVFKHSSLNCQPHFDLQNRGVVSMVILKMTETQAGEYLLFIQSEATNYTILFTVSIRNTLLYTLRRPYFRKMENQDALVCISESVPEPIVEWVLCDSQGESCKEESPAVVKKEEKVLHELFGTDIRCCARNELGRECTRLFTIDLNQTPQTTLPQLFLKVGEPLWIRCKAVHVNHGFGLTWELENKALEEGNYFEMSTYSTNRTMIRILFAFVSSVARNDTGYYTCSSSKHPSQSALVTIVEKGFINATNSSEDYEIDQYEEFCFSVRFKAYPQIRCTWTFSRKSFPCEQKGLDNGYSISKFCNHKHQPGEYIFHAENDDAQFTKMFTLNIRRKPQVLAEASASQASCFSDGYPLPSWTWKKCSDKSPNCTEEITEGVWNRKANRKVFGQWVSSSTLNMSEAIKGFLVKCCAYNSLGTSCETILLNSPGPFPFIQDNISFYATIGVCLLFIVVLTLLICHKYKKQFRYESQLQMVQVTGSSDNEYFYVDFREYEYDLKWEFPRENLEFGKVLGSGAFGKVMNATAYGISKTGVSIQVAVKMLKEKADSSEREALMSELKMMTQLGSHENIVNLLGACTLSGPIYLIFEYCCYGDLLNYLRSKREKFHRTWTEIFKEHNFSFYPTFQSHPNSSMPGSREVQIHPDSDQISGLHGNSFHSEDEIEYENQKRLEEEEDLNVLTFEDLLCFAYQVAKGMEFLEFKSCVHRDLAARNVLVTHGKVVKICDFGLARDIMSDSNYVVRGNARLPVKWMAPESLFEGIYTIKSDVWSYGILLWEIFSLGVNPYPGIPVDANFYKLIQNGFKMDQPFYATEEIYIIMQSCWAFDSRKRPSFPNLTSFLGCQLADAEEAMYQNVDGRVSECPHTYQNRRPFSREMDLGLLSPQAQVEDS
Sequence of Fibroblast growth factor receptor 1 (P11362 whole entry): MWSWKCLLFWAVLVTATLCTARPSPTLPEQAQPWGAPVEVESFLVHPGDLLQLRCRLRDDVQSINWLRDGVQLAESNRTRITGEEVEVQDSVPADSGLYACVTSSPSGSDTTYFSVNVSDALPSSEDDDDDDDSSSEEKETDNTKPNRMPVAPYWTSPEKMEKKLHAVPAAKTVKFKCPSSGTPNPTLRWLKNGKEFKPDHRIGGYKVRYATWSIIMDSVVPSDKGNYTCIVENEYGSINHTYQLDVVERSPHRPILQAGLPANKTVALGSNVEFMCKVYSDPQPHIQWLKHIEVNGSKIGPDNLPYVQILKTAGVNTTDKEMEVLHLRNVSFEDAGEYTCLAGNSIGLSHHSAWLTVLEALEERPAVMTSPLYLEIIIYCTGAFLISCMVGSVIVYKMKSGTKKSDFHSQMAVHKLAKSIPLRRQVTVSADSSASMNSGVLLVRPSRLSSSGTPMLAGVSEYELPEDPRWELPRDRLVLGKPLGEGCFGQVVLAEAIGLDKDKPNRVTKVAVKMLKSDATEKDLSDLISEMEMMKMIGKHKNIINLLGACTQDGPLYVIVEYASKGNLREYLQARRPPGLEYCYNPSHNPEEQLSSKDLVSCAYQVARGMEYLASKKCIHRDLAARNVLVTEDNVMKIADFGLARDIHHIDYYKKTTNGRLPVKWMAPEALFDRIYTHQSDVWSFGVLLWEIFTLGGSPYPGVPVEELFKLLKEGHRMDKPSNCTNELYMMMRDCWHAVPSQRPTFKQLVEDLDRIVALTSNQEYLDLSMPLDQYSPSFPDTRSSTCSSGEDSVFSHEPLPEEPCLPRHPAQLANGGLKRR

In the case of Cc1ccc(NC(=O)COc2cccc(/C=C3\SC(=S)N(CCC(=O)O)C3=O)c2)cc1Cl, the IC50 [1] is reported as 5.06 µM (active) and the IC50 (Caspase-3) is reported as > 99 µM (inactive).

In the case of COc1cccc(C(C)NC(=O)c2ccc(-c3ccncc3)s2)c1 (stereo not drawn), the Ki [2] is reported as > 3.16 µM (inactive), the Ki [3] is reported as > 2.51 µM (inactive) and the Ki [4] is reported as > 2 µM (inactive). The Ki [5] was > 2.51 µM (inactive), the Ki [6] was 1.58 µM (active) and the Ki [7] was 1 µM (active). For the same compound, the Ki [8] was > 3.16 µM (inactive), the Ki [9] was > 6.31 µM (inactive) and the Ki [10] was > 3.98 µM (inactive). The Ki [11] was > 3.98 µM (inactive), the Ki [12] was 2 µM (active) and the Ki [13] was > 2.51 µM (inactive). The Ki [14] was > 5.01 µM (inactive), the Ki [15] was 79.4 nM (active) and the Ki [16] was 1.58 µM (active). The Ki [17] was > 1.58 µM (inactive).

In the case of O=Nc1c(-c2c(O)[nH]c3cc(Br)ccc23)[nH]c2ccccc12, the EC50 [18] is reported as 2.6 µM (active), the IC50 [19] is reported as > 66.6 µM (inactive) and the IC50 [20] is reported as > 64.6 µM (inactive). The IC50 (Melanocortin receptor 4) was 6.37 µM (active) and the EC50 [21] was > 120 µM (not active).

From ChEMBL document CHEMBL1201862, “PubChem BioAssay data set” (2004)
